Non-standard residues stand in square brackets, D forms with d. Residues, ends and D or L forms follow the SMILES beside them. Cha = N[C@@H](CC1CCCCC1)C(=O)O
Legend:
[1] = Viscoelastic characterization: mechanical stiffness of peptide hydrogels (rheometer); format: physicochemical
Procedure: The viscoelastic characteristics of peptide hydrogels, including the mechanical stiffness and viscosity, are analyzed using TA Ares-G2 Rheometer equipped with advanced Peltier system (APS). The mechanical stiffness of the peptide gels is measured using an 8 mm parallel plate with a gap of 1.8 mm, between the upper and lower plates, and at 22° C. The hydrogels are prepared, one day before the measurement, by mixing 135 μl of peptide solution, and 15 μl of 10×PBS inside a 9 mm internal diameter Sigmacote® coated glass casting ring. The rings are then kept inside Petri dishes at room temperature with water surrounding and tightly sealed to avoid dehydration. For each peptide, six replicates are prepared to control the accuracy of the measurements. The stiffness is analyzed through three successive tests, which are time-sweep, frequency-sweep, and amplitude-sweep. Time-sweep is first performed for 5 minutes with angular frequency and a strain of 1 rad/s and 0.1%, respectively. A frequency sweep is subsequently performed on the sample for a range of angular frequency of 0.1-100 rad/s with the same strain of 0.1%. The tests are completed with the amplitude sweep by applying a gradual increase of strain from 0.01% to 100% at 1 rad/s angular frequency.

[2] = system: human dermal fibroblasts (hDF); format: cell-based
Procedure: hDF is used in bioprinting experiments. Each cell type is cultured in its complete growth media, as described before, and cells at passages 4-8 are used in printing experiments. For bioprinting, hDF is mixed with PBS at a final concentration of 5×10^6 and 8×10^6 cells/ml, respectively, and loaded into the microfluidic tubing of the robotic arm bioprinter. In the printing process, the flow rates are 10 μl/min, 55 μl/min, and 8 μl/min for cells, peptide solution, and 5×PBS, respectively. Different cell-laden structures are printed including cuboids with 10 mm edges and 2.6 mm height, and cylinders with 10 mm diameter, and a height of 10 mm. After printing, the printed cell-laden constructs are placed in the CO2 incubator for 5 min before the addition of complete growth media. The printed cell-laden constructs are placed in standard conditions (37° C., 5% CO2, and 95% relative humidity), and the media are changed every three days.
LIVE/DEAD® Cell Viability/Cytotoxicity Kit (ThermoFisher®, USA) is used to assess the viability of cells within the 3D printed constructs. The same protocol, as described earlier, is followed except for increasing the incubation time to 1 hour. The viability of cells is assessed immediately after printing, within 1 hour, designated as day 0 and at days 3, 7, 17 and 24 post-printing. For each time point, two cell-laden constructs are analyzed, and images are taken from different areas of the construct, including the center, edges, top, and bottom. Stained printed cell-laden constructs are imaged using an inverted laser scanning confocal microscope (Zeiss™ LSM 880 Inverted Confocal Microscope, Germany). The number of live and dead cells are counted using imageJ software, and the percentage of cell viability is calculated as the average ratio of live to total cells.

[3] = Peptide gelation studies (vial inversion method); format: physicochemical; settings: for gelation time: 1×PBS buffer; for minimum gelation concentration: as used for 3D cell culture
Procedure: The peptide powder is dissolved in 0.90 mL of Milli-Q® water and vortexed until a clear and homogeneous solution is observed. Then 0.10 mL of 10×PBS buffer (w/o Ca^2+ and Mg^2+) is added to the peptide solution. The glass vial is kept undisturbed, and the hydrogel formation is observed using the vial inversion method. The time and minimum concentration at which each peptide has formed a hydrogel are noted.

[4] = Viscosity of peptide solution before and after gelation (rheometer, flow experiment); format: physicochemical
Procedure: The viscosity of the peptide solution before and after gelation is determined using the same rheometer, 25 mm parallel plate geometry, and a gap of 0.5 mm at 25° C. For the peptide solution, 250 μl of 13 mg/mL peptide solution is dropped on the Peltier plate and measured. For peptide gel samples, the peptide solution and 10×PBS buffer are mixed with the ratio of 1:10 on the Peltier plate and directly measured. The flow experiment is set up by starting the shear rate from 0.1 to 1500 s-1 for a 200-seconds duration. The value of the shear rate that we choose for our printing system is calculated using the equation below: 51
[formula] • γ: shear rate (s−1); Q: flow rate (95 μL/s); d: diameter of needle (0.514 mm).

[5] = gel, 13 mg/ml, shear rate 29.7 s^−1

| Compound | Loss Modulus (G′) ([1]; 1 mg/mL hydrogel) [kPa] | Storage Modulus (G′) ([1]; 1 mg/mL hydrogel) [kPa] | tan δ (G″/G′) ([1]; 1 mg/mL hydrogel) | Loss Modulus (G′) ([1]; 2 mg/mL hydrogel) [kPa] | Storage Modulus (G′) ([1]; 2 mg/mL hydrogel) [kPa] | tan δ (G″/G′) ([1]; 2 mg/mL hydrogel) | Loss Modulus (G′) ([1]; 5 mg/mL hydrogel) [kPa] | Storage Modulus (G′) ([1]; 5 mg/mL hydrogel) [kPa] | tan δ (G″/G′) ([1]; 5 mg/mL hydrogel) | Loss Modulus (G′) ([1]; 8 mg/mL hydrogel) [kPa] | Storage Modulus (G′) ([1]; 8 mg/mL hydrogel) [kPa] | tan δ (G″/G′) ([1]; 8 mg/mL hydrogel) | Loss Modulus (G′) ([1]; 10 mg/mL hydrogel) [kPa] | Storage Modulus (G′) ([1]; 10 mg/mL hydrogel) [kPa] | gelation time ([3]; 1 mg/ml) | gelation time ([3]; 10 mg/ml) | gelation time ([3]; 2 mg/ml) [min] | gelation time ([3]; 3 mg/ml) [min] | gelation time ([3]; 5 mg/ml) [min] | gelation time ([3]; 20 mg/ml) [min] | other results |
| --- | --- | --- | --- | --- | --- | --- | --- | --- | --- | --- | --- | --- | --- | --- | --- | --- | --- | --- | --- | --- | --- |
| CC[C@H](C)[C@H](NC(C)=O)C(=O)N[C@H](C(=O)N[C@@H](Cc1ccccc1)C(=O)N[C@@H](CCCCN)C(N)=O)[C@@H](C)CC [IIFK, Ac-Ile-Ile-Phe-Lys-NH2] (Ac-IIFK-NH2) | 0.13 ± 0.04 | 1.25 ± 0.86 | 0.10 | 1.31 ± 0.12 | 14.45 ± 1.37 | 0.09 | 2.39 ± 0.11 | 27.26 ± 1.30 | 0.09 | 5.00 ± 0.31 | 49.74 ± 5.02 | 0.10 | 9.04 ± 0.56 | 94.18 ± 7.12 | less than 2.5 h | less than 3 min | – | – | – | – | tan δ (G″/G′) ([1]; 10 mg/mL hydrogel): 0.10; Loss Modulus (G′) ([1]; 13 mg/mL hydrogel): 8.90 ± 0.36 kPa; Storage Modulus (G′) ([1]; 13 mg/mL hydrogel): 108.21 ± 5.02 kPa; tan δ (G″/G′) ([1]; 13 mg/mL hydrogel): 0.08; cell viability in the center versus the edge of the filled cube structure [2]: no difference; minimum gelation concentration [3]: 2 mg/mL; Viscosity [4, 5]: 0.56 Pa · s; Viscosity ([4]; solution, 13 mg/mL): 0.09 Pa · s |
| CC[C@H](C)[C@H](NC(C)=O)C(=O)N[C@H](C(=O)N[C@@H](CC1CCCCC1)C(=O)N[C@@H](CCCCN)C(N)=O)[C@@H](C)CC [IIZK, Ac-Ile-Ile-Cha-Lys-NH2] (Ac-II[Cha]K-NH2) | 0.88 ± 0.04 | 6.52 ± 0.18 | 0.13 | 2.02 ± 0.09 | 16.82 ± 0.72 | 0.12 | 7.08 ± 0.59 | 64.74 ± 4.89 | 0.11 | 10.91 ± 0.44 | 89.40 ± 1.86 | 0.12 | 15.54 ± 0.68 | 134.04 ± 5.99 | less than 7 min | – | – | – | – | – | tan δ (G″/G′) ([1]; 10 mg/mL hydrogel): 0.12; Loss Modulus (G′) ([1]; 13 mg/mL hydrogel): 37.76 ± 2.38 kPa; Storage Modulus (G′) ([1]; 13 mg/mL hydrogel): 271.34 ± 35.09 kPa; tan δ (G″/G′) ([1]; 13 mg/mL hydrogel): 0.14; cell viability in the center versus the edge of the filled cube structure [2]: slightly lower; minimum gelation concentration [3]: 1 mg/mL; Viscosity [4, 5]: 0.47 Pa · s; Viscosity ([4]; solution, 13 mg/mL): 0.03 Pa · s |
| CC[C@H](C)[C@H](NC(C)=O)C(=O)N[C@@H](CC1CCCCC1)C(=O)N[C@@H](CC1CCCCC1)C(=O)N[C@@H](CCCCN)C(N)=O [IZZK, Ac-Ile-Cha-Cha-Lys-NH2] (Ac-I[Cha][Cha]K-NH2) | 0.36 ± 0.08 | 3.71 ± 0.19 | 0.10 | 1.44 ± 0.07 | 15.53 ± 0.74 | 0.09 | 11.60 ± 0.51 | 85.87 ± 6.50 | 0.14 | 29.70 ± 1.54 | 193.09 ± 10.13 | 0.15 | 39.71 ± 1.50 | 222.13 ± 8.16 | – | – | – | – | – | – | tan δ (G″/G′) ([1]; 10 mg/mL hydrogel): 0.18; Loss Modulus (G′) ([1]; 13 mg/mL hydrogel): 54.56 ± 1.46 kPa; Storage Modulus (G′) ([1]; 13 mg/mL hydrogel): 314.91 ± 10.10 kPa; tan δ (G″/G′) ([1]; 13 mg/mL hydrogel): 0.17; cell viability in the center versus the edge of the filled cube structure [2]: slightly lower; Viscosity [4, 5]: 0.48 Pa · s; Viscosity ([4]; solution, 13 mg/mL): 0.06 Pa · s |
| FFFK: ultrashort amphiphilic peptide, one-letter amino acid sequence (Ac-FFFK-NH2) | – | – | – | – | – | – | – | – | – | – | – | – | – | – | – | <2 min | <15 | <10 | <5 | – | gelation time ([3]; 4 mg/ml): <5 min; gelation time (in words) ([3]; 20 mg/ml): simultaneously |
| FFIK: ultrashort amphiphilic peptide, one-letter amino acid sequence (Ac-FFIK-NH2) | – | – | – | – | – | – | – | – | – | – | – | – | – | – | – | <5 min | <10 | <10 | <5 | <5 | gelation (in words) ([3]; 1 mg/ml, in 1 h): Does not gel |
| FIIK: ultrashort amphiphilic peptide, one-letter amino acid sequence (Ac-FIIK-NH2) | – | – | – | – | – | – | – | – | – | – | – | – | – | – | <15 min | <5 min | <5 | <10 | <10 | <5 | gel quality (in words) ([3]; 1 mg/ml): Soft gel |
| IFFK: ultrashort amphiphilic peptide, one-letter amino acid sequence (Ac-IFFK-NH2) | – | – | – | – | – | – | – | – | – | – | – | – | – | – | >60 min | <5 min | <10 | <5 | <5 | <5 | gel quality (in words) ([3]; 1 mg/ml): Slightly; gelation time ([3]; 4 mg/ml): <5 min |
| ZIIK: ultrashort amphiphilic peptide, one-letter sequence; Z is cyclohexylalanine (Ac-[Cha]IIK-NH2; SMILES CC[C@H](C)[C@H](NC(=O)[C@H](CC1CCCCC1)NC(C)=O)C(=O)N[C@H](C(=O)N[C@@H](CCCCN)C(N)=O)[C@@H](C)CC) | – | – | – | – | – | – | – | – | – | – | – | – | – | – | <60 min | <5 min | <10 | – | <10 | <5 | gel quality (in words) ([3]; 1 mg/ml): Very soft gel |
